Values of other authors in patent publication US20240316057A1 (priority 2021, published 2024).

Key:
[1] = as known to the skilled person

Row | solubility in water | SMILES | efficacious plasma concentration range [1]
1 |  | Cn1c(=O)c2c(ncn2C)n(C)c1=O [Caffeine, 1,3,7-trimethylxanthine] | 5 to 20 µM
2 | very slightly water-soluble | Cn1cnc2c1c(=O)[nH]c(=O)n2C [Theobromine, 3,7-dimethylxanthine] | 
